The source made the active and inactive calls. The calls are words filed in the database; no cut-off is given here.
Biological target: T1, Proteasome subunit beta type-9 (Homo sapiens) (UniProt P28065)
T1 sequence (whole entry): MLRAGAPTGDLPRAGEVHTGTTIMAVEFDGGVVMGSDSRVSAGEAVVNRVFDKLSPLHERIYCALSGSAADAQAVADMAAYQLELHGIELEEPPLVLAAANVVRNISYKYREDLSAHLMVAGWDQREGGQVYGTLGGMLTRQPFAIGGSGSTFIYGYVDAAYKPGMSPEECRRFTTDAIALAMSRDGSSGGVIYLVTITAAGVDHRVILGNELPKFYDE
Test: Inhibition of LMP2 in human PBMC at 125 nM by ELISA

- inhibition: Active
Structure (SMILES): COc1ccc(C[C@H](NC(=O)[C@@H](C)NC(=O)[C@H]2CC[C@H](O)CC2)C(=O)N[C@@H](CC2=CCCC2)C(=O)[C@@]2(C)CO2)cc1
